The values below come from patent US20230330058A1, “SENOLYTIC COMPOUNDS AND COMPOSITIONS” (NUCHIDO LIMITED, priority 2020, published 2023).

Data set [1] concerns platelets. The following applies: originally intended as anti-cancer drugs; cited from earlier work.
Data set [2] relates to senescent Human Dermal Fibroblasts (HDFs) versus non-senescent ('young') HDFs. Description: Senescence-specific assay: co-culture of labelled senescent and non-senescent cells, automated counting before and after 72 h incubation. In kind it is cell-based. The following applies: for selective senolytic activity: single agent, killing senescent cells over non-senescent cells; for increase of the senolytic effect of navitoclax: uncoupler together with navitoclax, efficacy at lower navitoclax concentrations (FIGS. 11, 12; senescent and proliferating cells); for senolytic activity in galactose media: glycolysis suppressed (FIGS. 5, 13); for selective senolytic activity at concentrations reached in humans: concentrations already known to be reached safely in humans, achievable blood plasma concentrations (FIG. 3). The procedure:
We developed a senescence-specific assay, employing automated counting of differentially labelled senescent and non-senescent cells in co-culture, before and after 72h incubation with each molecule or molecule combination.
Human Dermal Fibroblasts (HDFs) expressing pSLIEW (Green), or mCherry (Red) are used in the assay. The cells expressing pSLIEW (Green) are subjected to 20 Gy X-irradiation to induce senescence.
The test molecule is added to the co-culture, and the number of green and red cells are counted before and after 72 h incubation. A selective senolytic would be expected to diminish the proportion of green-expressing senescent cells, while leaving the number of red-expressing young cells unchanged or increased due to replication during the incubation period.
The experiments were carried out in 96-well plates, and the cells were imaged using fluorescent microscopy. The images were analysed with ICY software for automated cell counting, and both numbers of labelled cells and their other visible characteristics such as size were recorded.

The test system of data set [3] is aging in animals. The following applies: cited from earlier work.
Data set [4] has as its system senescent cells. The following applies: cited from earlier work.

The structures appear in SMILES notation. “Also recorded” adds a separate entry of the source. Structures can show the parent of a compound that is named as a salt.

As for `Cc1c(-c2ccc(N3CCc4cccc(C(=O)Nc5nc6ccccc6s5)c4C3)nc2C(=O)O)cnn1CC12CC3CC(CC(C3)C1)C2` [A-1331852, 3-(1-(((3r,5r,7r)-adamantan-1-yl)methyl)-5-methyl-1H-pyrazol-4-yl)-6-(8-(benzo[d]thiazol-2-ylcarbamoyl)-3,4-dihydroisoquinolin-2(1H)-yl)picolinic acid], the side-effect profile entry in data set [1] is “thrombocytopaenia”.
In the case of `C[C@@H]1CC[C@H]2[C@@H](C)C(=O)O[C@@H]3O[C@@]4(C)CC[C@@H]1[C@]32OO4` [Artemisinin], in data set [2], the selective senolytic activity entry is listed as “showed selective senolytic activity”.
`CN1C(=O)C(C(=O)Nc2nncs2)c2cc3occc3cc21` (stereo not drawn) [BML-288]: the selective senolytic activity result in data set [2] is recorded as “showed selective senolytic activity”.
The same measure, in the same setting: under `CC(C)(C)c1cc(O)c(C(C)(C)C)cc1O` [BTBHQ, 2,5-di-tert-butylhydroquinone] stands “showed selective senolytic activity”.
As to `N#CC(C#N)=NNc1cccc(Cl)c1` [CCCP, Carbonyl cyanide m-chlorophenyl hydrazone], the “increase of the senolytic effect of navitoclax” value in data set [2] is on record as “increases the senolytic effect of navitoclax”.
As for `O=[N+]([O-])c1ccc(O)c([N+](=O)[O-])c1` [DNP, 2,4-Dinitrophenol], the selective senolytic activity entry in data set [2] is “selective senolytic activity”.
As for `O=C(O[C@@H]1Cc2c(O)cc(O)cc2O[C@@H]1c1cc(O)c(O)c(O)c1)c1cc(O)c(O)c(O)c1` [EGCG, epigallocatechin gallate], the selective senolytic activity entry in data set [2] was “showed selective senolytic activity”.
With `N#CC(C#N)=NNc1ccc(OC(F)(F)F)cc1` [FCCP, Carbonyl cyanide-p-trifluoromethoxyphenylhydrazone], in data set [2], the selective senolytic activity result is on record as “selective senolytic activity” and the “increase of the senolytic effect of navitoclax” value is reported as “increases the senolytic effect of navitoclax”.
Take `CN1CCc2ccccc2Cc2[nH]c3ccccc3c2CC1` [LE300, 6,7,8,9,14,15-hexahydro-7-methyl-5H-indolo[3,2-f][3]benzazecine]: in data set [2], the selective senolytic activity result is listed as “showed selective senolytic activity”.
In the case of `O=C(O)CCCCC1CCSS1` (stereo not drawn) [alpha lipoic acid], the selective senolytic activity result in data set [2] is “showed selective senolytic activity”.
As for `O=c1cc(-c2ccc(O)cc2)oc2cc(O)cc(O)c12` [apigenin], the selective senolytic activity result in data set [2] is given as “showed selective senolytic activity”.
Consider `OCCN1CCN(CCCN2c3ccccc3Sc3ccc(C(F)(F)F)cc32)CC1` [fluphenazine dihydrochloride], for which the selective senolytic activity result is “showed selective senolytic activity” in data set [2] (dihydrochloride) and “selective senolytic activity” in data set [2] (listed as fluphenazine hydrochloride, dihydrochloride).
Take `C=CCc1ccc(O)c(-c2ccc(O)c(CC=C)c2)c1` [honokiol]: the selective senolytic activity entry in data set [2] is “showed selective senolytic activity”.
On to `C=CCc1ccc(O)c(-c2cc(CC=C)ccc2O)c1` [magnolol], for which the selective senolytic activity result in data set [2] is on record as “showed selective senolytic activity”.
On to `CN(C)C(=N)N=C(N)N` [metformin], for which the “senolytic activity in galactose media” value in data set [2] was “senolytic at physiological doses if glycolysis is suppressed; also recorded: senolytic when glycolysis is suppressed; also recorded: displays senolytic activity”. For the same compound, the “effect on aging in animals” value in data set [3] is on record as “can delay aging in animals”.
With `CC1(C)CCC(c2ccc(Cl)cc2)=C(CN2CCN(c3ccc(C(=O)NS(=O)(=O)c4ccc(N[C@H](CCN5CCOCC5)CSc5ccccc5)c(S(=O)(=O)C(F)(F)F)c4)cc3)CC2)C1` [navitoclax], the “senolytic agent in animal studies” value in data set [4] is “inducing apoptosis in senescent cells, but less in non-senescent cells”. Also, the side-effect profile result in data set [1] is reported as “thrombocytopaenia”.
Take `O=C(Nc1ccc([N+](=O)[O-])cc1Cl)c1cc(Cl)ccc1O` [niclosamide]: in data set [2], the “selective senolytic activity at concentrations reached in humans” value is on record as “selective senolytic activity” and the selective senolytic activity entry is “showed selective senolytic activity”. The “selective senolytic activity at concentrations reached in humans” value in data set [2] (listed as Niclosamide) is listed as “selectively senolytic at concentrations that are already known to be reached safely in humans”.
Consider `NC(=O)c1cccnc1` [nicotinamide], for which the selective senolytic activity result in data set [2] is reported as “showed selective senolytic activity”.
For `CC(=O)Oc1ccccc1C(=O)Nc1ncc([N+](=O)[O-])s1` [nitazoxanide], in data set [2], the “senolytic activity in galactose media” value is recorded as “selective senolytic activity”.
Take `O=c1c(O)c(-c2ccc(O)c(O)c2)oc2cc(O)cc(O)c12` [quercetin]: the selective senolytic activity result in data set [2] is “showed selective senolytic activity”.
For the compound `Oc1ccc(C=Cc2cc(O)cc(O)c2)cc1` [resveratrol], the selective senolytic activity entry in data set [2] is listed as “showed selective senolytic activity”.
